Consider three compounds from patent publication US20230140453A1, “METHOD FOR CONTROLLING OBESITY BY REGULATING ACTIVITY OF TREK1” (KOREA INSTITUTE OF SCIENCE AND TECHNOLOGY, priority 2021, published 2023).

Assay [1] has as its system 3T3L1 cell line. In words: Adipocyte differentiation inhibition by TREK1 activator (triglyceride amount) in 3T3L1 cells. The class given is cell-based. The note with it: 10 μM, 25 μM. The method, then:
(§1) 3T3-L1 cells were purchased from ATCC (American Type Culture Collection) and cultured in Dulbecco's Modified Eagle Medium (Gibco, N.Y., USA) with 10% (v/v) bovine serum (Gibco, N.Y., USA) and 1% v/v) penicillin/streptomycin (Thermo Fisher Scientific, N.J., USA). Cultures were maintained in a humidified 5% CO2 incubator at 37° C. After reaching 80% confluence, the differentiation of 3T3L1 cells was induced by replacing the medium with DMEM containing 10% FBS plus 1 μg/mL insulin, 0.5 mM isobutyl-1-methylxanthine (IBMX), 1 μM and 2 μM Rosiglitazone for 3 days. Afterward the medium was changed with DMEM containing 10% FBS plus 1 μg/mL insulin, and the cells were further cultured for 2 to 4 days. Culture medium contained a combination of IBMX, dexamethasone (Dex), insulin, rosiglitazone, and fetal bovine serum (FBS) to differentiate preadipocyte into mature adipocytes. After differentiation, experiments were conducted at three points. Each time the medium was changed over time, the cells were differentiated with IBMX medium for 3 days, and then changed to insulin medium every 2 days thereafter. As a result of confirmation by a microscope, the cell shape of 3T3-L1 was changed over time and intracellular lipid droplets were produced.
The 3T3L1 cell line, in which the same effect as in vivo and conditions was well confirmed, was treated with ML402, which has been reported to have an active effect on TREK1. Specifically, the cells were sampled on the 3rd, 5th, and 7th days by treating ML402 together from the time of differentiation at concentrations of 10 μM, 25 μM, and 100 μM, respectively.

The subject of assay [2] is 3T3L1 cell line. In words: Differentiation of 3T3L1 preadipocytes into adipocytes. It counts as cell-based. As for the experimental part: The 3T3L1 cell line, a preadipocyte cell line, was treated with MDI (Dexamethasone, IBMX, insulin) as a differentiation-inducing agent, and differentiation was induced for 7 days, and the differentiation into adipocytes was confirmed by staining with oil red 0 (FIG. 1A).
as §1, with “As a result of confirmation by a microscope, the cell shape of 3T3-L1 was changed over time and intracellular lipid droplets were produced.” left out

For the next assay, the system named is 3T3L1 cells. In words: Intracellular calcium ion concentration in 3T3L1 preadipocytes. The class given is cell-based. The text has this: In summary, the activity of TREK1, which is a potassium ion channel, was decreased in the process of differentiation into adipocytes, and as a result, the cell membrane potential was depolarized, and voltage-dependent calcium ion channels were activated, resulting in increasing intracellular calcium ion concentration and promoting the differentiation of adipocytes.
For orientation: Calcium flux is commonly read through the fluorescence of an indicator in the cells.

The subject of assay [3] is 3T3L1 cell line. In words: Potassium ion conductivity by patch clamp in undifferentiated 3T3L1 cells. It counts as cell-based. Conditions: undifferentiated condition, patch clamp (FIG. 2B). The method, then:
as §1, with “produced. […]” for “produced.”

Assay [4] relates to primary cultured adipocytes. In words: Differentiation of primary cultured adipocytes. The class given is cell-based, mouse (C57BL/6). The note with it: primary cultured adipocytes treated with TREK1 inhibitor (FIG. 4 legend). The method, then: (§2) The method for obtaining primary cultured adipocytes is as follows. Primary white adipocytes were isolated from inguinal WAT 6-8 week mouse (C57BL/6). The extracted WAT was washed in a 15 mL tube. The enzyme solution was mixed with collagenase Type II (Worthington Industries, Columbus, Ohio, USA) and PBS (Gibco, N.Y., USA), and the tissue was incubated in 20 mL enzyme solution in an incubator at 37° C. for 1 hour. After filtering, the tissue was added to a new 50 mL tube and centrifuged at 10,000 rpm for 10 minutes. The adipocytes floating in the solution were transferred to a new tube using a pipette. Then, the adipocytes were once more centrifuged in DMEM/F12 (Gibco, N.Y., USA) containing 10% (v/v) FBS. After transferring the fatty layer to the cell culture flask, and the flask was filled with DMEM/F12+mixture. The flask was inverted and incubated in a 37° C. CO2 incubator, and the medium was changed after about 5 days.

Assay [5] deals with primary cultured adipocytes. In words: Potassium conductivity and resting membrane potential in primary cultured adipocytes. It counts as cell-based, mouse (C57BL/6). The method, then:
as §2

As for `Cc1cc(Cl)ccc1OCCNC(=O)c1cccs1` [ML402], the differentiation process entry with 3T3L1 cell line [1] (3T3L1, 100 μM (FIG. 7)) is listed as “inhibited in a concentration-dependent manner”. The amount of triglycerides result in the assay on 3T3L1 cell line [1] (3rd day, 100 μM from the time of differentiation, vs control group (FIG. 7)) is given as “did not show a significant difference”; in the assay on 3T3L1 cell line [1] (5th and 7th days, 100 μM from the time of differentiation (FIG. 7)) it was “decreased in a concentration-dependent manner”.

In the case of `COC(=O)C1=C(C)NC(C)=C(C(=O)OC)C1c1ccccc1[N+](=O)[O-]` [nifedifine], in the assay on 3T3L1 cell line [2] (with voltage-dependent calcium ion channel inhibitor, spadin-treated 3T3L1 (FIGS. 3D and 3E)), the differentiation into adipocytes result was “differentiation into adipocytes was also inhibited”. Moreover, the “spadin-induced increase in calcium ions” value in the assay on 3T3L1 cells (with voltage-dependent calcium ion channel inhibitor (FIGS. 3B and 3C)) was “effectively inhibited”.

spadin: the “degree of differentiation into adipocytes” value in the assay on 3T3L1 cell line [2] (treated in the process of differentiation of 3T3L1 (FIG. 2C)) is “the degree of differentiation was significantly increased”. In addition, the potassium conductivity entry with 3T3L1 cell line [3] is reported as “most of the potassium conductivity was decreased”. For the same compound, in assay [4], the differentiation into adipocytes result is “differentiation into adipocytes is significantly increased”. In addition, in the assay with 3T3L1 cells (30 minutes after spadin treatment (FIG. 3A)), the “intracellular calcium ion concentration” value is on record as “a significant increase in calcium ions”. Besides, in assay [5] (1 μM concentration (FIG. 4C)), the resting membrane potential entry is “the resting membrane potential was also increased”. The potassium ion conductivity result in assay [5] (1 μM concentration (FIGS. 4A and 4B)) was “significantly decreased”.
